Data on 15 compounds can be found in patent US10336707B2, “Heterocyclic derivatives modulating activity of certain protein kinases” (EUDENDRON S.R.L., priority 2014, dated 2019).

For assay [1], the system named is Karpas 299 lymphoma cell line positive for the oncogenic fusion protein NPM-ALK. The assay can be described thus: Tritiated thymidine uptake cell proliferation assay, Karpas 299. Conditions: Homo sapiens, KARPAS-299; percentage of inhibition of cell proliferation at 200 nM; read-out: % Inhibition Karpas 299 cells. In kind it is cell-based. The procedure: (§1) Method: Tritiated Thymidine Uptake Cell Proliferation Assay
(§2) The following procedure was used with parent untransformed BaF3 cells, BaF3 cells transformed with the oncogenic fusion protein NPM/ALK, NPM/ALK positive SUDHL-1 cells, NPM/ALK positive SUPM2, ALK-negative HL60 cells, NPM/ALK positive KARPAS-299 cells. The parent untransformed BaF3 cells or Alk-negative HL60 cells are used as controls. Cells were seeded in U-bottomed 96-well plates at 10000 cells/well in a volume of 100 μl in supplemented medium. In the case of the parent untransformed BaF3 cells, the medium was supplemented with IL-3. Serial dilutions of inhibitors were added to the appropriate wells and volumes adjusted to 200 μl. Controls were treated with the equivalent volume of vehicle, DMSO, alone. Plates were incubated at 37° C. for 72 h. 3[H]-thymidine (1 μCi/well) was added for the last 16 h of incubation. Cells were harvested on to paper filters and 3[H]-thymidine incorporation was measured using a scintillation counter (1430 MicroBeta, Wallac, Turku, Finland). The 50% inhibitory concentration (IC50) was defined as the concentration of inhibitor, expressed in nanomolar units, that gave a 50% decrease in 3[H]-thymidine uptake compared with controls.
In Table 1 are listed results for selected examples of compounds of the invention, reported as percentage of inhibition of cell proliferation at 200 nM, obtained from cellular assays in Karpas 299 lymphoma cell line positive for the oncogenic fusion protein NPM-ALK.

The target in assay [2] is T1, BaF3 cell line transfected with the oncogenic fusion protein NPM-ALK and expressing the mutation L1196M (Homo sapiens, UniProt Q9UM73, L1196M, cells depend on it).
T1 construct: fused on or other part: P06748 (Nucleophosmin)
T1 sequence (Q9UM73 whole entry L1196M, the tested form may be a part): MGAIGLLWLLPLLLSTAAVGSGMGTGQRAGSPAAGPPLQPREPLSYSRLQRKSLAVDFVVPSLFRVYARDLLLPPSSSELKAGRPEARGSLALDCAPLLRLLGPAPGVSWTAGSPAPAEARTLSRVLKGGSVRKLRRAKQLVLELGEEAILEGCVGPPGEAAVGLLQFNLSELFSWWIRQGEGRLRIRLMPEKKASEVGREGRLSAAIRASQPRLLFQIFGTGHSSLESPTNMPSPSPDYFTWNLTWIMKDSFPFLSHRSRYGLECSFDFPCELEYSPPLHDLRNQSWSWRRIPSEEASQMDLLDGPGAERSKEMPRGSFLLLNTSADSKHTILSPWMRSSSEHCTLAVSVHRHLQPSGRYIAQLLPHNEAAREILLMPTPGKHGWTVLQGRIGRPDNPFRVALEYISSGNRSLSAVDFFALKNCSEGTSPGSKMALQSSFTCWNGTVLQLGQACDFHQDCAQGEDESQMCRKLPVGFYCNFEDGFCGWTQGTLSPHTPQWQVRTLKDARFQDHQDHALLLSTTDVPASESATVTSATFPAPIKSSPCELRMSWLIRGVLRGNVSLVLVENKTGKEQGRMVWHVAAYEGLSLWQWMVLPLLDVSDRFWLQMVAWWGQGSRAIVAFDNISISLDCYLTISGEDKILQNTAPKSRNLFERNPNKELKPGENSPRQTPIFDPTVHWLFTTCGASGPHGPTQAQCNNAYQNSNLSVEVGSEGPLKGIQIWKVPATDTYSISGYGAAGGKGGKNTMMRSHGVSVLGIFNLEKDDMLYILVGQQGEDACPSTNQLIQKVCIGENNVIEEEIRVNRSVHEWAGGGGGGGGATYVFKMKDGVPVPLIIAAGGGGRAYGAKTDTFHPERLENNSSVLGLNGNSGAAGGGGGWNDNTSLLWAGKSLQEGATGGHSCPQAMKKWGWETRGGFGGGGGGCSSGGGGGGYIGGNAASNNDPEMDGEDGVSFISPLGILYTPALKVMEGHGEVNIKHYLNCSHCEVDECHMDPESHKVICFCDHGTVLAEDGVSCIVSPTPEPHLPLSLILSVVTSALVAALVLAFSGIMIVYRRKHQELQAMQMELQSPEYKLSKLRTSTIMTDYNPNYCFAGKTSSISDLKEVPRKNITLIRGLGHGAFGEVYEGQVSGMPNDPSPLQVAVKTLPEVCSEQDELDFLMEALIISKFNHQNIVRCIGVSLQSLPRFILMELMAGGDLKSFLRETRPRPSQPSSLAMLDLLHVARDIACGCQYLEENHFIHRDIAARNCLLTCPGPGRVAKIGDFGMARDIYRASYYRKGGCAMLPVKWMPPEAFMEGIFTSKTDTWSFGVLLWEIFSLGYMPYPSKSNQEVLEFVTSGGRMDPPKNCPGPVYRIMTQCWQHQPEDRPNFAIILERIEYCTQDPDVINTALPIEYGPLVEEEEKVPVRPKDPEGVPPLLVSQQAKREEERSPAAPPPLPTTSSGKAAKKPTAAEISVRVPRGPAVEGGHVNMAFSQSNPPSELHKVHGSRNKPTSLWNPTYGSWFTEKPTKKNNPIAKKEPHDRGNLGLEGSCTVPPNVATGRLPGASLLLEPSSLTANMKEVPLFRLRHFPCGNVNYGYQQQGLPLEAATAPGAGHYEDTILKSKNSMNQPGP
Nature of the assay: Tritiated thymidine uptake cell proliferation assay, BaF3 NPM-ALK L1196M. In kind it is cell-based, murine. The following applies: for GI50: averaged IC50 values of cell proliferation inhibition, class letters, read-out: IC50 BaF3 NPM-ALK L1196M cells; for % Inhibition BaF3 NPM-ALK L1196M cells: percentage of inhibition of cell proliferation at 200 nM. The procedure: as §1, §2
In Table 2 are listed results for selected examples of compounds of the invention, reported as percentage of inhibition of cell proliferation at 200 nM, obtained from cellular assays in BaF3 cell line transfected with the oncogenic fusion protein NPM-ALK and expressing the mutation L1196M.
In Table 3 are listed averaged IC50 values of cell proliferation inhibition for selected examples of compounds of the present invention, obtained from cellular assays in BaF3 cell line transfected with the oncogenic fusion protein NPM-ALK and expressing the mutation L1196M. The letter “A” designates an IC50 value between 1 nM and 50 nM, the letter “B” designates an IC50 value between 50 nM and 100 nM, the letter “C” designates an IC50 value between 100 and 500 nM.

Usually inhibition stands for the drop in the measured response relative to a control, in per cent.

Regarding `CN1CCN(c2ccc(C(=O)Nc3n[nH]c4cc(-c5cccc(O)c5)c(Cc5cc(F)cc(F)c5)cc34)c(NC3CCOCC3)c2)CC1` [Example 4, N-[5-[(3,5-difluorophenyl)methyl]-6-(3-hydroxyphenyl)-1H-indazol-3-yl]-4-(4-methylpiperazin-1-yl)-2-(tetrahydropyran-4-ylamino)benzamide], the inhibition at 0.2 µM in assay [1] is 99%. In addition, in assay [2], the GI50 fell in the range of 1 to 50 nM and the “% Inhibition BaF3 NPM-ALK L1196M cells” value stood at 99%.

In the case of `Cc1cc(O)ccc1-c1cc2[nH]nc(NC(=O)c3ccc(N4CCN(C)CC4)cc3NC3CCOCC3)c2cc1Cc1cc(F)cc(F)c1` [Example 5, N-[5-[(3,5-difluorophenyl)methyl]-6-(4-hydroxy-2-methyl-phenyl)-1H-indazol-3-yl]-4-(4-methylpiperazin-1-yl)-2-(tetrahydropyran-4-ylamino)benzamide], the inhibition at 0.2 µM in assay [1] came to 100%. Besides, in assay [2], the GI50 was 1 to 50 nM and the “% Inhibition BaF3 NPM-ALK L1196M cells” value came out at 100%.

For `CN1CCN(c2ccc(C(=O)Nc3n[nH]c4cc(-c5ccc(O)cc5F)c(Cc5cc(F)cc(F)c5)cc34)c(NC3CCOCC3)c2)CC1` [Example 6, N-[5-[(3,5-difluorophenyl)methyl]-6-(2-fluoro-4-hydroxy-phenyl)-1H-indazol-3-yl]-4-(4-methylpiperazin-1-yl)-2-(tetrahydropyran-4-ylamino)benzamide], in assay [1], the inhibition at 0.2 µM was 100%. Further, in assay [2], the GI50 lay within 1 to 50 nM and the “% Inhibition BaF3 NPM-ALK L1196M cells” value was determined as 100%.

In the case of `Cc1ccc(O)cc1-c1cc2[nH]nc(NC(=O)c3ccc(N4CCN(C)CC4)cc3NC3CCOCC3)c2cc1Cc1cc(F)cc(F)c1` [Example 7, N-[5-[(3,5-difluorophenyl)methyl]-6-(5-hydroxy-2-methyl-phenyl)-1H-indazol-3-yl]-4-(4-methylpiperazin-1-yl)-2-(tetrahydropyran-4-ylamino)benzamide], the inhibition at 0.2 µM in assay [1] came out at 93%. Besides, in assay [2], the GI50 was 1 to 50 nM and the “% Inhibition BaF3 NPM-ALK L1196M cells” value is 100%.

Consider `CN1CCN(c2ccc(C(=O)Nc3n[nH]c4cc(-c5cc(O)ccc5F)c(Cc5cc(F)cc(F)c5)cc34)c(NC3CCOCC3)c2)CC1` [Example 8, N-[5-[(3,5-difluorophenyl)methyl]-6-(2-fluoro-5-hydroxy-phenyl)-1H-indazol-3-yl]-4-(4-methylpiperazin-1-yl)-2-(tetrahydropyran-4-ylamino)benzamide], for which, in assay [1], the inhibition at 0.2 µM is 99%. Also, in assay [2], the GI50 was in the range of 1 to 50 nM and the “% Inhibition BaF3 NPM-ALK L1196M cells” value was 99%.

As to `CN1CCN(c2ccc(C(=O)Nc3n[nH]c4cc(-c5ccc(O)cc5C(F)(F)F)c(Cc5cc(F)cc(F)c5)cc34)c(NC3CCOCC3)c2)CC1` [Example 9, N-[5-[(3,5-difluorophenyl)methyl]-6-[4-hydroxy-2-(trifluoromethyl)phenyl]-1H-indazol-3-yl]-4-(4-methylpiperazin-1-yl)-2-(tetrahydropyran-4-ylamino)benzamide], in assay [1], the inhibition at 0.2 µM amounted to 100%. Also, in assay [2], the GI50 is 1 to 50 nM and the “% Inhibition BaF3 NPM-ALK L1196M cells” value is given as 99%.

With `CN1CCN(c2ccc(C(=O)Nc3n[nH]c4cc(-c5cnc(N)nc5)c(Cc5cc(F)cc(F)c5)cc34)c(NC3CCOCC3)c2)CC1` [Example 10, N-[6-(2-aminopyrimidin-5-yl)-5-[(3,5-difluorophenyl)methyl]-1H-indazol-3-yl]-4-(4-methylpiperazin-1-yl)-2-(tetrahydropyran-4-ylamino)benzamide], the inhibition at 0.2 µM in assay [1] came out at 93%. For the same compound, the “% Inhibition BaF3 NPM-ALK L1196M cells” value in assay [2] was 61%.

On to `CN1CCN(c2ccc(C(=O)Nc3n[nH]c4cc(-c5ccc(N)nc5)c(Cc5cc(F)cc(F)c5)cc34)c(NC3CCOCC3)c2)CC1` [Example 11, N-[6-(6-amino-3-pyridyl)-5-[(3,5-difluorophenyl)methyl]-1H-indazol-3-yl]-4-(4-methylpiperazin-1-yl)-2-(tetrahydropyran-4-ylamino)benzamide], for which the inhibition at 0.2 µM in assay [1] came out at 95%. Further, in assay [2], the GI50 lay within 50 to 100 nM and the “% Inhibition BaF3 NPM-ALK L1196M cells” value is on record as 88%.

In the case of `CN1CCN(c2ccc(C(=O)Nc3n[nH]c4cc(-c5cncc(N)c5)c(Cc5cc(F)cc(F)c5)cc34)c(NC3CCOCC3)c2)CC1` [Example 12, N-[6-(5-amino-3-pyridyl)-5-[(3,5-difluorophenyl)methyl]-1H-indazol-3-yl]-4-(4-methylpiperazin-1-yl)-2-(tetrahydropyran-4-ylamino)benzamide], in assay [1], the inhibition at 0.2 µM worked out at 100%. In addition, in assay [2], the GI50 lay within 50 to 100 nM and the “% Inhibition BaF3 NPM-ALK L1196M cells” value is given as 99%.

Regarding `CN1CCN(c2ccc(C(=O)Nc3n[nH]c4cc(-c5cccc(CO)c5)c(Cc5cc(F)cc(F)c5)cc34)c(NC3CCOCC3)c2)CC1` [Example 13, N-[5-[(3,5-difluorophenyl)methyl]-6-[3-(hydroxymethyl)phenyl]-1H-indazol-3-yl]-4-(4-methylpiperazin-1-yl)-2-(tetrahydropyran-4-ylamino)benzamide], in assay [2], the GI50 was in the range of 100 to 500 nM and the “% Inhibition BaF3 NPM-ALK L1196M cells” value was 97%.

Consider `Cc1cc(N)ncc1-c1cc2[nH]nc(NC(=O)c3ccc(N4CCN(C)CC4)cc3NC3CCOCC3)c2cc1Cc1cc(F)cc(F)c1` [Example 14, N-[6-(6-amino-4-methyl-3-pyridyl)-5-[(3,5-difluorophenyl)methyl]-1H-indazol-3-yl]-4-(4-methylpiperazin-1-yl)-2-(tetrahydropyran-4-ylamino)benzamide], for which, in assay [1], the inhibition at 0.2 µM was 62%. In addition, the “% Inhibition BaF3 NPM-ALK L1196M cells” value in assay [2] is reported as 66%.

As to `CN1CCN(c2ccc(C(=O)Nc3n[nH]c4cc(-c5cnn(C(C)(C)CO)c5)c(Cc5cc(F)cc(F)c5)cc34)c(NC3CCOCC3)c2)CC1` [Example 15, N-[5-[(3,5-difluorophenyl)methyl]-6-[1-(2-hydroxy-1,1-dimethyl-ethyl)pyrazol-4-yl]-1H-indazol-3-yl]-4-(4-methylpiperazin-1-yl)-2-(tetrahydropyran-4-ylamino)benzamide], the inhibition at 0.2 µM in assay [1] worked out at 100%. In addition, in assay [2], the GI50 was in the range of 50 to 100 nM and the “% Inhibition BaF3 NPM-ALK L1196M cells” value came out at 100%.

Consider `CN1CCN(c2ccc(C(=O)Nc3n[nH]c4cc(-c5cc[nH]c(=O)c5)c(Cc5cc(F)cc(F)c5)cc34)c(NC3CCOCC3)c2)CC1` [Example 16, N-[5-[(3,5-difluorophenyl)methyl]-6-(2-oxo-1H-pyridin-4-yl)-1H-indazol-3-yl]-4-(4-methylpiperazin-1-yl)-2-(tetrahydropyran-4-ylamino)benzamide], for which, in assay [1], the inhibition at 0.2 µM was 88%.

`CNC(=O)c1ccc(-c2cc3[nH]nc(NC(=O)c4ccc(N5CCN(C)CC5)cc4NC4CCOCC4)c3cc2Cc2cc(F)cc(F)c2)cc1` [Example 20, N-[5-[(3,5-difluorophenyl)methyl]-6-[4-(methylcarbamoyl)phenyl]-1H-indazol-3-yl]-4-(4-methylpiperazin-1-yl)-2-(tetrahydropyran-4-ylamino)benzamide]: the “% Inhibition BaF3 NPM-ALK L1196M cells” value in assay [2] was determined as 57%.

As for `COc1cccc(-c2cc3[nH]nc(NC(=O)c4ccc(N5CCN(C)CC5)cc4NC4CCOCC4)c3cc2Cc2cc(F)cc(F)c2)c1` [Example 24, N-[5-[(3,5-difluorophenyl)methyl]-6-(3-methoxyphenyl)-1H-indazol-3-yl]-4-(4-methylpiperazin-1-yl)-2-(tetrahydropyran-4-ylamino)benzamide], the “% Inhibition BaF3 NPM-ALK L1196M cells” value in assay [2] came out at 52%.
